Drawing on ChEMBL document CHEMBL1124978, “Direct C-glycosylation of guanine analogues: the synthesis and antiviral activity of certain 7- and 9-deazaguanine C-nucleosides” (1990), this text covers Mean survival time and Survivors / total for six compounds.

The structures appear in SMILES notation.

Holding throughout (type): functional
What all share (details): route intraperitoneal

The test system of test [1] is Mus musculus. Nature of the test: Tested against Forest virus infection in mice at dose 100 mg/kg administered intraperitoneally.
The subject of test [2] is Mus musculus. Kind of test: Tested against Forest virus infection in mice at dose 100 mg/kg administered intraperitoneally; 7/12(58).
Test [3] concerns Mus musculus. Kind of test: Tested against Forest virus infection in mice at dose 100 mg/kg administered intraperitoneally; 1/12(8).
The test system of test [4] is Mus musculus. Kind of test: Tested against Forest virus infection in mice at dose 100 mg/kg administered intraperitoneally; 0/12(0).
The test system of test [5] is Mus musculus. Nature of the test: Tested against Forest virus infection in mice at dose 100 mg/kg administered intraperitoneally; 10/12(83).
Test [6] relates to Mus musculus. Nature of the test: Tested against Forest virus infection in mice at dose 100 mg/kg administered intraperitoneally in experiment 2; 11/12(92).
Test [7] concerns Mus musculus. Nature of the test: Tested against Forest virus infection in mice at dose 100 mg/kg administered intraperitoneally in experiment 3; 11/12(92).
The subject of test [8] is Mus musculus. Nature of the test: Tested against Forest virus infection in mice at dose 100 mg/kg administered intraperitoneally in experiment 1.
For test [9], the system named is Mus musculus. Nature of the test: Tested against Forest virus infection in mice at dose 100 mg/kg administered intraperitoneally in experiment 2.
The test system of test [10] is Mus musculus. Kind of test: Tested against Forest virus infection in mice at dose 100 mg/kg administered intraperitoneally in experiment 3.
The test system of test [11] is Mus musculus. Kind of test: Tested against Forest virus infection in mice at dose 100 mg/kg administered intraperitoneally in experiment 1; 9/12(75).

`CN1C(Br)=C([C@@H]2O[C@H](CO)[C@@H](O)[C@H]2O)C2=NC(N)=NC(=O)C21` (stereo partly specified): the Mean survival time in the test with Mus musculus [1] worked out at 7 days. The compound also gave a Survivors / total in the test on Mus musculus [2] of 7%.
`NC1=NC(=O)C2NC=C([C@@H]3O[C@H](CO)[C@@H](O)[C@H]3O)C2=N1` (stereo partly specified): in the test on Mus musculus [1], the Mean survival time came to 7.3 days. Further, the Survivors / total in the test with Mus musculus [3] was found to be 8.33%.
With `CN1C=C([C@@H]2O[C@H](CO)[C@@H](O)[C@H]2O)C2=NC(N)=NC(=O)C21` (stereo partly specified), the Mean survival time with Mus musculus [1] came out at 8.1 days. In the test with Mus musculus [3], this compound had a Survivors / total of 8.33%.
`CC1=C([C@@H]2O[C@H](CO)[C@@H](O)[C@H]2O)C2C(=O)N=C(N)N=C2N1` (stereo partly specified) came in with a Survivors / total in the test on Mus musculus [4] of 0%. In the test with Mus musculus [1], the Mean survival time was found to be 7.2 days.
`CN1C(Cl)=C([C@@H]2O[C@H](CO)[C@@H](O)[C@H]2O)C2=NC(N)=NC(=O)C21` (stereo partly specified) displayed a Mean survival time in the test on Mus musculus [1] of 11 days. This compound had a Survivors / total in the test with Mus musculus [5] of 10%.
As for `Nc1nc(=O)c2sc(=O)n([C@@H]3O[C@H](CO)[C@@H](O)[C@H]3O)c2[nH]1` [ISATORIBINE], the Survivors / total is 91.7% with Mus musculus [6], 91.7% in the test on Mus musculus [7] and 75% with Mus musculus [11]. Further, the Mean survival time turned out to be 8.3 days in the test on Mus musculus [8], 10 days with Mus musculus [9] and 9 days in the test on Mus musculus [10].
